Structures can show the parent of a compound that is named as a salt.
Test system: patient's personalized Drosophila model 006.1
Experiment: Trametinib combination drug screen (Table 4B, experimental pupae numbers)
Format: in vivo
Method: After food was solidified, a mixture of experimental and control embryos (at a 1:2 ratio based on expected Mendelian ratios) were aliquoted into each drug/food tube (15 μl/tube). […] Embryos for drug screening were generated from the following cross in cages: w/Y; UAS-006.1; UAS ago^RNAi UAS-apc^RNAi/Stub-gal80-T Xw UAS-dicer2; +; byn-gal4 UAS-GFP tub-gal80^ts/TM6, Hu, Tb. Embryos were obtained from each cage for 4-5 consecutive days by providing daily a fresh apple juice plate with yeast paste. Egg lays were performed at 22° C. to minimize transgene expression during embryogenesis to prevent embryonic defects or lethality that could not potentially be rescued by drug feeding. After embryos were aliquoted, drug tubes were transferred to 25° C. to induce transgene expression. After 2 weeks, the number of surviving experimental pupae (EP) were counted in each tube.
DMSO and Trametinib alone served as controls. […] Statistical analysis was performed as described above.

[1] = drug screened in combination with trametinib
[2] = drug screened in combination with trametinib, mean of 8 replicates

Row | Structure (SMILES) | EP (raw experimental pupae numbers), replicate 1 [1] | EP (raw experimental pupae numbers), replicate 2 [1] | EP (raw experimental pupae numbers), replicate 3 [1] | EP (raw experimental pupae numbers), replicate 4 [1] | EP (raw experimental pupae numbers), replicate 5 [1] | EP (raw experimental pupae numbers), replicate 6 [1] | EP (raw experimental pupae numbers), replicate 7 [1] | EP (raw experimental pupae numbers), replicate 8 [1] | EP mean [2] | EP mean (in vivo)
1 | COc1ccc2c(c1)c(CC(=O)O)c(C)n2C(=O)c1ccc(Cl)cc1 [indomethacin] | 0 | 0 | 0 | 0 | 1 | 0 | 0 | 0 | 0.125 | –
2 | COc1cc2c(cc1OC)CC(=O)N(CCCN(C)C[C@H]1Cc3cc(OC)c(OC)cc31)CC2 [ivabradine HCl] | 0 | 0 | 0 | 0 | 2 | 1 | 0 | 0 | 0.375 | –
3 | CC(C)(C)c1cc(C(C)(C)C)c(NC(=O)c2c[nH]c3ccccc3c2=O)cc1O [ivacaftor] | 0 | 0 | 7 | 0 | 3 | 3 | 1 | 2 | 2 | –
4 | CC(C)C[C@H](NC(=O)CNC(=O)c1cc(Cl)ccc1Cl)B(O)O [ixazomib] | 1 | 1 | 1 | 0 | 1 | 2 | 0 | 0 | 0.75 | –
5 | O=C(O)CSc1nnc(Br)n1-c1ccc(C2CC2)c2ccccc12 [lesinurad sodium] | 0 | 0 | 1 | 0 | 1 | 2 | 1 | 0 | 0.625 | –
6 | Cc1ccc(NC(=O)C2(c3ccc4c(c3)OC(F)(F)O4)CC2)nc1-c1cccc(C(=O)O)c1 [lumacaftor] | 0 | 4 | 4 | 1 | 2 | 1 | 1 | 4 | 2.125 | –
7 | CC(=O)O[C@]1(C(C)=O)CC[C@H]2[C@@H]3C=C(C)C4=CC(=O)CC[C@]4(C)[C@H]3CC[C@@]21C [megestrol acetate] | 0 | 1 | 1 | 0 | 1 | 2 | 1 | 2 | – | 1
8 | Cc1cnc(NC(=O)C2=C(O)c3ccccc3S(=O)(=O)N2C)s1 [meloxicam] | 0 | 0 | 0 | 3 | 1 | 1 | 0 | 1 | – | –
9 | CN(C)C(=N)N=C(N)N [metformin HCl] | 0 | 0 | 0 | 1 | 1 | 0 | 2 | 2 | – | 0.75
10 | CN1Cc2c(N)cccc2C(c2ccccc2)C1 (stereo not shown) [nomifensine maleate] | 0 | 0 | 0 | 0 | 1 | 4 | 0 | 1 | 0.75 | –
11 | C=CC(=O)Nc1cc(Nc2nccc(-c3cn(C)c4ccccc34)n2)c(OC)cc1N(C)CCN(C)C [osimertinib] | 0 | 0 | 0 | 0 | 0 | 0 | 3 | 1 | 0.5 | –
12 | Fc1ccc([C@@H]2CCNC[C@H]2COc2ccc3c(c2)OCO3)cc1 [paroxetine HCl] | 0 | 0 | 0 | 0 | 1 | 2 | 0 | 1 | 0.5 | –
13 | CC(C)(C)N.CCC[C@H](N[C@@H](C)C(=O)N1[C@H](C(=O)O)C[C@@H]2CCCC[C@@H]21)C(=O)OCC [perindropil erbumine] | 0 | 0 | 3 | 3 | 5 | 1 | 2 | 2 | – | 2
14 | CC(C(=O)O)c1ccc2c(c1)Cc1cccnc1O2 (stereo not shown) [pranaprofen] | 0 | 1 | 1 | 1 | 1 | 3 | 1 | 3 | 1.375 | –
15 | Cc1cc(/C=C/c2ccc3cc(N(C)C)ccc3[n+]2C)c(C)n1-c1ccccc1 [pyrvinium] | 4 | 1 | 6 | 4 | 2 | 1 | 3 | 0 | – | –

Reference: patent US20220160714A1, “METHODS FOR TREATING COLORECTAL CANCER” (ICAHN SCHOOL OF MEDICINE AT MOUNT SINAI, priority 2019, published 2022)
